{
  "source": "paper PMC8445441",
  "about": "“Elucidating the mechanism by which synthetic helper peptides sensitize Pseudomonas aeruginosa to multiple antibiotics” (PLoS Pathogens, 2021)",
  "key": {"[1]": {"test_system": "P. aeruginosa PA14", "test": "microbe, parasite or virus in culture", "design": "MICa: MIC of the antibiotic / MICac: MIC of the antibiotic in the combination: unit not given beside the values", "settings": "strain PA14", "how_it_was_run": "(§1)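 CLSI broth dilution; MHB; ~1 × 10^6 CFU/mL suspension mixed equal volume with drug; 37 °C for 18 h; visual read; triplicate. Broth sometimes supplemented with PG, PE, PC, CL, LPS, MgCl2, CaCl2 or PAβN.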"}, "[2]": {"test_system": "P. aeruginosa ATCC27853", "test": "microbe, parasite or virus in culture", "design": "MICa: MIC of the antibiotic / MICac: MIC of the antibiotic in the combination: unit not given beside the values", "settings": "strain ATCC27853", "how_it_was_run": "as §1"}, "[3]": {"test_system": "P. aeruginosa PAK", "test": "microbe, parasite or virus in culture", "design": "MICa: MIC of the antibiotic / MICac: MIC of the antibiotic in the combination: unit not given beside the values", "settings": "strain PAK", "how_it_was_run": "as §1"}, "[4]": {"test_system": "P. aeruginosa NR-31041", "test": "microbe, parasite or virus in culture", "design": "MICa: MIC of the antibiotic / MICac: MIC of the antibiotic in the combination: unit not given beside the values", "settings": "strain NR-31041", "how_it_was_run": "as §1"}, "[5]": {"test_system": "P. aeruginosa NR-31040", "test": "microbe, parasite or virus in culture", "design": "MICa: MIC of the antibiotic / MICac: MIC of the antibiotic in the combination: unit not given beside the values", "settings": "strain NR-31040", "how_it_was_run": "as §1"}, "[6]": {"test_system": "P. aeruginosa HM-214", "settings": "strain HM-214; antibiotic + D-11 (MICb/MICbc 128/4)", "how_it_was_run": "as §1"}, "[7]": {"test_system": "P. aeruginosa AUMC-Pa-4", "test": "microbe, parasite or virus in culture", "settings": "strain AUMC-Pa-4", "how_it_was_run": "as §1"}, "[8]": {"test_system": "P. aeruginosa AUMC-Pa-3", "test": "microbe, parasite or virus in culture", "settings": "strain AUMC-Pa-3", "how_it_was_run": "as §1"}, "[9]": {"test_system": "P. aeruginosa AUMC-Pa-5", "test": "microbe, parasite or virus in culture", "how_it_was_run": "as §1"}, "[10]": {"test_system": "P. aeruginosa AUMC-Pa-6", "test": "microbe, parasite or virus in culture", "settings": "strain AUMC-Pa-6", "how_it_was_run": "as §1"}, "[11]": {"test_system": "P. aeruginosa PAO1", "test": "microbe, parasite or virus in culture", "settings": "S1 Table; macrolide alone; PAO1", "how_it_was_run": "as §1"}, "[12]": {"test_system": "clinical P. aeruginosa isolates", "test": "microbe, parasite or virus in culture", "settings": "Pseudomonas aeruginosa, 18 h, antibiotic alone", "how_it_was_run": "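MIC is the lowest drug concentration showing no visible growth after 18 h at 37 °C. Two-fold dilutions in MHB were combined with an equal volume of bacterial suspension (about 1 × 10^6 CFU/mL), following CLSI broth microdilution, in triplicate.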"}, "[13]": {"test_system": "P. aeruginosa AUMC-Pa-1", "settings": "strain AUMC-Pa-1; antibiotic + D-11 (MICb/MICbc 128/4)", "how_it_was_run": "as §1"}, "[14]": {"test_system": "P. aeruginosa AUMC-Pa-2", "settings": "strain AUMC-Pa-2; antibiotic + D-11 (MICb/MICbc 64/4)", "how_it_was_run": "as §1"}, "[15]": {"settings": "antibiotic + D-11 (MICb/MICbc 128/4)"}, "[16]": {"settings": "antibiotic alone, unit not given"}, "[17]": {"settings": "with D-11 at MICbc 4, unit not given"}, "[18]": {"settings": "antibiotic + D-11 (MICb/MICbc 64/4)"}},
  "note": "Read-outs that look alike come from different tables or passages of the source.",
  "data": [
    {"compound": "CC[C@H]1OC(=O)[C@H](C)[C@@H](O[C@H]2C[C@@](C)(OC)[C@@H](O)[C@H](C)O2)[C@H](C)[C@@H](O[C@@H]2O[C@H](C)C[C@H](N(C)C)[C@H]2O)[C@](C)(OC)C[C@@H](C)C(=O)[C@H](C)[C@@H](O)[C@]1(C)O", "note": "[Clarithromycin]", "values": [
      {"measurement": "FICI", "setting": "[1]; [15]", "value": 0.281},
      {"measurement": "MICa: MIC of the antibiotic", "setting": "[1]; [16]", "value": 128},
      {"measurement": "MICac: MIC of the antibiotic in the combination", "setting": "[1]; [17]", "value": 32},
      {"measurement": "FICI", "setting": "[2]; antibiotic + D-11 (MICb/MICbc 32/4)", "value": 0.188},
      {"measurement": "MICa: MIC of the antibiotic", "setting": "[2]; [16]", "value": 128},
      {"measurement": "MICac: MIC of the antibiotic in the combination", "setting": "[2]; [17]", "value": 8},
      {"measurement": "FICI", "setting": "[3]; [18]", "value": 0.188},
      {"measurement": "MICa: MIC of the antibiotic", "setting": "[3]; [16]", "value": 128},
      {"measurement": "MICac: MIC of the antibiotic in the combination", "setting": "[3]; [17]", "value": 16},
      {"measurement": "FICI", "setting": "[4]; [18]", "value": 0.188},
      {"measurement": "MICa: MIC of the antibiotic", "setting": "[4]; [16]", "value": 128},
      {"measurement": "MICac: MIC of the antibiotic in the combination", "setting": "[4]; [17]", "value": 16},
      {"measurement": "FICI", "setting": "[5]; [15]", "value": 0.281},
      {"measurement": "MICa: MIC of the antibiotic", "setting": "[5]; [16]", "value": 128},
      {"measurement": "MICac: MIC of the antibiotic in the combination", "setting": "[5]; [17]", "value": 32},
      {"measurement": "FICI", "setting": "[6]", "value": 0.281},
      {"measurement": "FICI", "setting": "[7]; [15]", "value": 0.281},
      {"measurement": "MICa: MIC of the antibiotic", "setting": "[7]; [16]", "value": 128},
      {"measurement": "MICac: MIC of the antibiotic in the combination", "setting": "[7]; [17]", "value": 32},
      {"measurement": "FICI", "setting": "[8]; [15]", "value": 0.094},
      {"measurement": "MICa: MIC of the antibiotic", "setting": "[8]; [16]", "value": 128},
      {"measurement": "MICac: MIC of the antibiotic in the combination", "setting": "[8]; [17]", "value": 8},
      {"measurement": "MIC", "setting": "[9]; Pseudomonas aeruginosa, AUMCPA5, 18 h, read-out: MICa: MIC of the antibiotic", "value": "> 128", "unit": "µM"},
      {"measurement": "FICI", "setting": "[9]; strain AUMC-Pa-5, antibiotic + D-11 (MICb/MICbc 64/4)", "value": 0.188},
      {"measurement": "MICac: MIC of the antibiotic in the combination", "setting": "[9]; strain AUMC-Pa-5, with D-11 at MICbc 4, unit not given", "value": 32},
      {"measurement": "FICI", "setting": "[10]; [18]", "value": 0.313},
      {"measurement": "MICa: MIC of the antibiotic", "setting": "[10]; [16]", "value": 128},
      {"measurement": "MICac: MIC of the antibiotic in the combination", "setting": "[10]; [17]", "value": 32},
      {"measurement": "MICa: the MIC of antibiotics", "setting": "[11]", "value": 128, "unit": "µM"},
      {"measurement": "MIC", "setting": "[12]; read-out: Antibiotic sensibility (MIC) of clinical P. aeruginosa isolate AUMC-Pa-1, strain AUMC-Pa-1", "value": 128, "unit": "µM"},
      {"measurement": "MIC", "setting": "[12]; read-out: Antibiotic sensibility (MIC) of clinical P. aeruginosa isolate AUMC-Pa-2, strain AUMC-Pa-2", "value": 128, "unit": "µM"},
      {"measurement": "MIC", "setting": "[12]; read-out: Antibiotic sensibility (MIC) of clinical P. aeruginosa isolate AUMC-Pa-3, strain AUMC-Pa-3", "value": 128, "unit": "µM"},
      {"measurement": "MIC", "setting": "[12]; read-out: Antibiotic sensibility (MIC) of clinical P. aeruginosa isolate AUMC-Pa-4, strain AUMC-Pa-4", "value": 128, "unit": "µM"},
      {"measurement": "MIC", "setting": "[12]; read-out: Antibiotic sensibility (MIC) of clinical P. aeruginosa isolate AUMC-Pa-5, strain AUMC-Pa-5", "value": "> 128", "unit": "µM"},
      {"measurement": "MIC", "setting": "[12]; read-out: Antibiotic sensibility (MIC) of clinical P. aeruginosa isolate AUMC-Pa-6, strain AUMC-Pa-6", "value": 128, "unit": "µM"},
      {"measurement": "MIC", "setting": "[12]; read-out: Antibiotic sensibility (MIC) of clinical P. aeruginosa isolate HM-214, strain HM-214", "value": 128, "unit": "µM"},
      {"measurement": "MIC", "setting": "[12]; read-out: Antibiotic sensibility (MIC) of clinical P. aeruginosa isolate NR-31040, strain NR-31040", "value": 128, "unit": "µM"},
      {"measurement": "MIC", "setting": "[12]; read-out: Antibiotic sensibility (MIC) of clinical P. aeruginosa isolate NR-31041, strain NR-31041", "value": 128, "unit": "µM"},
      {"measurement": "FICI", "setting": "[13]", "value": 0.156},
      {"measurement": "FICI", "setting": "[14]", "value": 0.313}
    ]}
  ]
}
